Some test systems named below: HCC-2998 colon; SK-OV-3 ovarian; UO-31 renal; NCI-H460 lung; HT29 colon; SF-268 CNS; UACC-62 melanoma; DU-145 prostate; SN12C renal; SNB-75 CNS.
Common to all, as to assay: NCI anticancer screen, dose series, 48 h

Values joined by “and” are separate entries in the source; they are usually repeats but may differ in a detail not shown here. Equal values may be shown once.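 Interpolation was linear, between the two tested concentrations surrounding the appropriate level; five concentrations were tested over 48 hours in 96-well plates. GI50 marks 50% less growth. TGI marks complete inhibition of growth.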

With `COc1ccc2c(c1)nnc1c3cccnc3[nH]c21`, the GI50 with HCC-2998 colon was 8.23 µM and 10 µM; in the assay with SK-OV-3 ovarian it was 2.69 µM and 2.38 µM; in the assay on UO-31 renal, 0.122 µM and 0.172 µM; in the assay with NCI-H460 lung, 1.93 µM and 1.28 µM; with HT29 colon, 0.751 µM and 0.541 µM; in the assay with SF-268 CNS it was 0.733 µM and 0.365 µM. Besides, the GI50 in the assay with UACC-62 melanoma is 0.908 µM and 2.11 µM; with DU-145 prostate it was 1.88 µM and 1.04 µM; with SN12C renal, 1.63 µM and 1.68 µM. The TGI was 18.4 µM and 23.8 µM in the assay with HCC-2998 colon; 13.5 µM and 12.5 µM with SK-OV-3 ovarian; 1.11 µM and 2.17 µM in the assay with UO-31 renal; 9.03 µM and 3.79 µM in the assay on NCI-H460 lung; 4.7 µM and 5.65 µM in the assay on SF-268 CNS; 6.93 µM and 12.6 µM with UACC-62 melanoma. The TGI in the assay with DU-145 prostate is 12.9 µM and 4.46 µM; in the assay with SN12C renal, 7.77 µM and 10.7 µM.
With `COc1cnccc1Nc1nc(-c2nn(Cc3c(F)cc(OCCO)cc3F)c3ccccc23)ncc1OC`, the GI50 in the assay on HCC-2998 colon is 10 µM; in the assay with SK-OV-3 ovarian, 19.4 µM; in the assay on UO-31 renal it was 1.97 µM; in the assay with NCI-H460 lung, 2.06 µM; in the assay with HT29 colon it was 2.87 µM; in the assay on SF-268 CNS it was 3.85 µM. Also, the GI50 in the assay on SNB-75 CNS was 3.76 µM; in the assay with DU-145 prostate, 3.11 µM; in the assay with SN12C renal it was 1.53 µM. Also, the TGI with HCC-2998 colon is more than 100 µM; with SK-OV-3 ovarian, 48 µM; in the assay on UO-31 renal, 8.43 µM; with NCI-H460 lung it was 10.6 µM; in the assay on HT29 colon, 16.4 µM; in the assay with SF-268 CNS it was 15.9 µM. The TGI is 18.4 µM in the assay with SNB-75 CNS, 11.5 µM with DU-145 prostate and 11.1 µM with SN12C renal.
Take `Clc1ccc(-c2nc(NCc3ccco3)c3ccccc3n2)c(Cl)c1`: the GI50 is 18.2 µM in the assay with HCC-2998 colon; 18.6 µM in the assay with SK-OV-3 ovarian; 26.8 µM in the assay on UO-31 renal; 32.9 µM in the assay with NCI-H460 lung; 32.3 µM in the assay with SF-268 CNS; 13.9 µM with UACC-62 melanoma. The GI50 was 8.38 µM in the assay on DU-145 prostate and 16.1 µM in the assay with SN12C renal. Further, the TGI in the assay on HCC-2998 colon was 46.9 µM; with SK-OV-3 ovarian, more than 100 µM; in the assay on UO-31 renal, more than 100 µM; in the assay on NCI-H460 lung it was more than 100 µM; in the assay on SF-268 CNS, 75.3 µM; in the assay with UACC-62 melanoma, 32.7 µM. Besides, the results for the TGI with DU-145 prostate and in the assay on SN12C renal were 29.6 µM and 44.9 µM, respectively.
For the compound `COc1cc(-c2ccc[nH]2)[nH]c1/C=C1\N=C(C)C(CC(=O)OCC(C)(C)C)=C1C`, the GI50 is 0.368 µM in the assay with HCC-2998 colon; 0.442 µM with SK-OV-3 ovarian; 0.173 µM in the assay with UO-31 renal; 0.137 µM in the assay with NCI-H460 lung; 0.172 µM in the assay on HT29 colon; 0.288 µM with SF-268 CNS. In addition, the GI50 with UACC-62 melanoma is 0.211 µM; in the assay with SNB-75 CNS it was 0.228 µM; in the assay with DU-145 prostate, 0.226 µM. In addition, the TGI came to 1.75 µM with HCC-2998 colon; 2.02 µM in the assay with SK-OV-3 ovarian; 0.382 µM with UO-31 renal; 1.35 µM in the assay with NCI-H460 lung; 1.17 µM in the assay with HT29 colon; 1.84 µM in the assay on SF-268 CNS. The TGI in the assay with UACC-62 melanoma stood at 0.555 µM; in the assay with SNB-75 CNS, 0.903 µM; in the assay on DU-145 prostate it was 1.53 µM.
Take `O=C(CI)Nc1ccc(Br)cc1`: the GI50 with HCC-2998 colon is 13.4 µM; in the assay with SK-OV-3 ovarian, 1.99 µM; with UO-31 renal, 1.63 µM; with NCI-H460 lung, 12.4 µM; in the assay on HT29 colon, 2.43 µM; with SF-268 CNS it was 1.8 µM. The results for the GI50 with UACC-62 melanoma, with SNB-75 CNS and in the assay with DU-145 prostate were 3.96 µM, 5.42 µM and 1.77 µM, respectively. Moreover, the TGI in the assay with HCC-2998 colon came out at 27.3 µM; with SK-OV-3 ovarian, 3.99 µM; in the assay with UO-31 renal, 3.17 µM; with NCI-H460 lung, 45.8 µM; in the assay with HT29 colon, 5.28 µM; with SF-268 CNS, 3.65 µM. In addition, the TGI in the assay with UACC-62 melanoma was determined as 14.8 µM; in the assay on SNB-75 CNS, 24.7 µM; in the assay with DU-145 prostate, 3.18 µM.
For `C=C(C)C(=O)Nc1ccc(-c2c(-c3ccc(Oc4nccc(C)n4)c(F)c3)c3c(N)ncnc3n2C)cc1`, the GI50 was 7.45 µM in the assay on HCC-2998 colon; 14.7 µM in the assay with SK-OV-3 ovarian; 1.18 µM in the assay with UO-31 renal; 3.05 µM in the assay with NCI-H460 lung; 3.22 µM in the assay on HT29 colon; 1.67 µM in the assay on SF-268 CNS. The GI50 with SNB-75 CNS is 1.18 µM; with DU-145 prostate, 3.86 µM; in the assay with SN12C renal, 2.63 µM. The TGI in the assay on HCC-2998 colon was determined as 21 µM; with SK-OV-3 ovarian, 69.2 µM; in the assay on UO-31 renal, 2.98 µM; in the assay on NCI-H460 lung it was 13.3 µM; in the assay on HT29 colon, 14.2 µM; with SF-268 CNS it was 16 µM. The TGI with SNB-75 CNS was 7.32 µM; in the assay with DU-145 prostate it was 15.3 µM; in the assay with SN12C renal, 17.2 µM.
As to `N#CC1=C(N)OC2=C(CCOc3c2ccc2ccccc32)C1c1ccc(Br)cc1` (configuration not stated), the GI50 is 22.1 µM with HCC-2998 colon; 28.8 µM with SK-OV-3 ovarian; more than 100 µM with UO-31 renal; 28.4 µM with NCI-H460 lung; 36.7 µM with HT29 colon; 27.8 µM with SF-268 CNS. Besides, the GI50 in the assay with UACC-62 melanoma is 48.1 µM; in the assay on DU-145 prostate, more than 100 µM; in the assay on SN12C renal, 21.6 µM. Also, the TGI in the assay with HCC-2998 colon was 56.9 µM; in the assay on SK-OV-3 ovarian, more than 100 µM; in the assay on UO-31 renal, more than 100 µM; with NCI-H460 lung, more than 100 µM; in the assay with HT29 colon, more than 100 µM; with SF-268 CNS, more than 100 µM. The TGI in the assay with UACC-62 melanoma was more than 100 µM; in the assay with DU-145 prostate it was more than 100 µM; with SN12C renal, 47 µM.
With `CSc1ccc(C(=O)/C=C/c2ccc(Cl)cc2Cl)cc1`, the GI50 was 17.2 µM in the assay on HCC-2998 colon; 22.4 µM in the assay with UO-31 renal; 26.3 µM in the assay with NCI-H460 lung; 20.8 µM in the assay on SF-268 CNS; 24.3 µM in the assay on UACC-62 melanoma; 25.7 µM in the assay on DU-145 prostate. In addition, in the assay with SN12C renal, the GI50 is 42.9 µM. Further, the TGI with HCC-2998 colon is 35.8 µM; with UO-31 renal it was 81.7 µM; in the assay on NCI-H460 lung it was 96.4 µM; in the assay on SF-268 CNS, 48.9 µM; in the assay with UACC-62 melanoma, 78.5 µM; in the assay with DU-145 prostate, 89.2 µM. This compound had a TGI in the assay on SN12C renal of more than 100 µM.
